Legend:
Assay in all cases: Kinase Hotspot radiolabel assay
Type in all cases: biochemical
Details in all cases: read-out: % Residual Activity
SIK1 = molecular target: T1, SIK1 (Homo sapiens, UniProt P57059)
T1 construct: purchased Reaction Biology Corporation (Kinase HotSpot)
Summary of the method: (§1)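 Single-point (1 µM) radiolabel kinase profiling across 369 kinases. Kinases exceeding 90% inhibition were carried forward for Ki values.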

PAK3 = molecular target: T2, PAK3 (Homo sapiens, UniProt O75914)
T2 construct: purchased Reaction Biology Corporation (Kinase HotSpot)
Summary of the method: as §1

TTBK2 = molecular target: T3, TTBK2 (Homo sapiens, UniProt Q6IQ55)
T3 construct: purchased Reaction Biology Corporation (Kinase HotSpot)
Summary of the method: as §1

RSK1 = molecular target: T4, RSK1 (Homo sapiens, UniProt Q15418)
T4 construct: purchased Reaction Biology Corporation (Kinase HotSpot)
T4 sequence (Q15418 whole entry): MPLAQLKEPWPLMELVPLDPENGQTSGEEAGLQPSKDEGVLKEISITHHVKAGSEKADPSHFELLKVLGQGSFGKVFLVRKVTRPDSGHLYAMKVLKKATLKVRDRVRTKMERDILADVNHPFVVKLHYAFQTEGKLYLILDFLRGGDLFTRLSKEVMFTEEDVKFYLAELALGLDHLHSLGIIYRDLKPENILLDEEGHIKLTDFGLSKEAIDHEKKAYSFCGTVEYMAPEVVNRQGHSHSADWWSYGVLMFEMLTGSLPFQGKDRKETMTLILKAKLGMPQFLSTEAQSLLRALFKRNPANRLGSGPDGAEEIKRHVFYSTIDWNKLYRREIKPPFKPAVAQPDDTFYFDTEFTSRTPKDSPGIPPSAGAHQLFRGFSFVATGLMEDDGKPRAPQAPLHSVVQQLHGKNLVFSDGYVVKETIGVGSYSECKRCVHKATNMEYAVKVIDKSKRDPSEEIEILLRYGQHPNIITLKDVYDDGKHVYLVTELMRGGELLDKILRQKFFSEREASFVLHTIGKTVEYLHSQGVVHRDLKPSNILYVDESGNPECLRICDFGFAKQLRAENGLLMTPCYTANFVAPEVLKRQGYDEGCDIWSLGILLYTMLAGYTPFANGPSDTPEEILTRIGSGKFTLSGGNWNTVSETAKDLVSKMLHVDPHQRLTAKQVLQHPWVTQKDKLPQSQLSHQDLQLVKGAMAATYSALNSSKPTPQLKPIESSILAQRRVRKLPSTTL
Summary of the method: as §1

PKG1b = molecular target: T5, PKG1b (Homo sapiens, UniProt Q13976)
T5 construct: purchased Reaction Biology Corporation (Kinase HotSpot)
Summary of the method: as §1

CK1a1L = molecular target: T6, CK1a1L (Homo sapiens, UniProt Q8N752)
T6 construct: purchased Reaction Biology Corporation (Kinase HotSpot)
T6 sequence (Q8N752 whole entry): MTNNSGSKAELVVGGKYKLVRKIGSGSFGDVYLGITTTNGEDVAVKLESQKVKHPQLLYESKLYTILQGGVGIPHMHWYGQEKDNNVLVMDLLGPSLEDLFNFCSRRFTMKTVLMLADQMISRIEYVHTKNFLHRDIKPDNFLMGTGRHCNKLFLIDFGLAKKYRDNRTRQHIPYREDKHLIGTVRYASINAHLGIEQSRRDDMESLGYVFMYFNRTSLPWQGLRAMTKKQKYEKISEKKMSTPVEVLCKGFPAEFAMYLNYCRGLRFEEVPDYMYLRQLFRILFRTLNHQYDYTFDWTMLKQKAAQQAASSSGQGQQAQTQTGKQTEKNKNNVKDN
Summary of the method: as §1

MARK2/PAR-1Ba = molecular target: T7, MARK2/PAR-1Ba (Homo sapiens, UniProt Q7KZI7)
T7 construct: purchased Reaction Biology Corporation (Kinase HotSpot)
T7 sequence (Q7KZI7 whole entry): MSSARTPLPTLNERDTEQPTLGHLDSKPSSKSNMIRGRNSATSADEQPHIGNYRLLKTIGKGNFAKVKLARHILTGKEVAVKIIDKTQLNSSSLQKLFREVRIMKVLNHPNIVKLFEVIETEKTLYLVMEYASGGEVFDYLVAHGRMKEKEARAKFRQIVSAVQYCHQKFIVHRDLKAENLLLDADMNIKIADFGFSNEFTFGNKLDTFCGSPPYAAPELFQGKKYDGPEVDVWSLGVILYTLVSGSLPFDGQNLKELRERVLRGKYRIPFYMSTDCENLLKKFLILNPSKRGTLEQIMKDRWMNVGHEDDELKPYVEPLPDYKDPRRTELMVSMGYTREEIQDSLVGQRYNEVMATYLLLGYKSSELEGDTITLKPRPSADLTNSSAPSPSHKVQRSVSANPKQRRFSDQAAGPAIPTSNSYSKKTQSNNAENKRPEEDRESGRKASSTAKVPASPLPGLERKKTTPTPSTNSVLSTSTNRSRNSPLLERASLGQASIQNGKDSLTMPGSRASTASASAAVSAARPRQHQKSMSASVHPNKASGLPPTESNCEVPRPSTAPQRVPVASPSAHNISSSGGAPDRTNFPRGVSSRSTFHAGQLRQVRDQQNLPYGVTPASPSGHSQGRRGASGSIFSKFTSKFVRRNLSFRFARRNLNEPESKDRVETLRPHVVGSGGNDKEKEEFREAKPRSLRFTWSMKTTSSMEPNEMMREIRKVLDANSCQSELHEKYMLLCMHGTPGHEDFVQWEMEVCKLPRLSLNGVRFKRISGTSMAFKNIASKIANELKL
Summary of the method: as §1

ERN2/IRE2 = molecular target: T8, ERN2/IRE2 (Homo sapiens, UniProt Q76MJ5)
T8 construct: purchased Reaction Biology Corporation (Kinase HotSpot)
T8 sequence (Q76MJ5 35-926): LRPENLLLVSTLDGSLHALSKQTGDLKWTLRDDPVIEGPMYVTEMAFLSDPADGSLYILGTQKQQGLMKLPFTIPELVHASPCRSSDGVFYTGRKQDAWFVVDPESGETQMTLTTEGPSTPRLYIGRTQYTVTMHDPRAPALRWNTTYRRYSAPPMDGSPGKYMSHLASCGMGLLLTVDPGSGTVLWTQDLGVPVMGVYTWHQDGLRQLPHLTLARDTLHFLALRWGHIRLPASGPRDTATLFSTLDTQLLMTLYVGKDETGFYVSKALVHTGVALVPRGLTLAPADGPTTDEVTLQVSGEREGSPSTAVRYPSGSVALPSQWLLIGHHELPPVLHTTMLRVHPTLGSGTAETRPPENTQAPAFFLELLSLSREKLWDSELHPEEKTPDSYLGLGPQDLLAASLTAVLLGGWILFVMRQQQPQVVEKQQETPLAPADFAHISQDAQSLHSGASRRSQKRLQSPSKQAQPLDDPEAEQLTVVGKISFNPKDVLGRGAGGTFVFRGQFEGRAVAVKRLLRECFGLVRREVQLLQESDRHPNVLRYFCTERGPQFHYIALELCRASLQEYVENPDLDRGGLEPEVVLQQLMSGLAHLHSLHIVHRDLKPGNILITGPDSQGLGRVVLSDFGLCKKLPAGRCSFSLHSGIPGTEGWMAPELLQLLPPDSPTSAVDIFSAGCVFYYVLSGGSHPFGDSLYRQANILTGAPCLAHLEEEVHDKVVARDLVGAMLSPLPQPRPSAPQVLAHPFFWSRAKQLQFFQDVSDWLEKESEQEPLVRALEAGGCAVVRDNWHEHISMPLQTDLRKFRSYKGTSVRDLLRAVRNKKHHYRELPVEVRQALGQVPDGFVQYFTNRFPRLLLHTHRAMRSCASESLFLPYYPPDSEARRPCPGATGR
Summary of the method: as §1

EPHA6 = molecular target: T9, EPHA6 (Homo sapiens, UniProt Q9UF33)
T9 construct: purchased Reaction Biology Corporation (Kinase HotSpot)
Summary of the method: as §1

STK25/YSK1 = molecular target: T10, STK25/YSK1 (Homo sapiens, UniProt O00506)
T10 construct: purchased Reaction Biology Corporation (Kinase HotSpot)
Summary of the method: as §1

ROCK1 = molecular target: T11, ROCK1 (Homo sapiens, UniProt Q13464)
T11 construct: purchased Reaction Biology Corporation (Kinase HotSpot)
Summary of the method: as §1

ABL2/ARG = molecular target: T12, ABL2/ARG (Homo sapiens, UniProt P42684)
T12 construct: purchased Reaction Biology Corporation (Kinase HotSpot)
T12 sequence (P42684 whole entry): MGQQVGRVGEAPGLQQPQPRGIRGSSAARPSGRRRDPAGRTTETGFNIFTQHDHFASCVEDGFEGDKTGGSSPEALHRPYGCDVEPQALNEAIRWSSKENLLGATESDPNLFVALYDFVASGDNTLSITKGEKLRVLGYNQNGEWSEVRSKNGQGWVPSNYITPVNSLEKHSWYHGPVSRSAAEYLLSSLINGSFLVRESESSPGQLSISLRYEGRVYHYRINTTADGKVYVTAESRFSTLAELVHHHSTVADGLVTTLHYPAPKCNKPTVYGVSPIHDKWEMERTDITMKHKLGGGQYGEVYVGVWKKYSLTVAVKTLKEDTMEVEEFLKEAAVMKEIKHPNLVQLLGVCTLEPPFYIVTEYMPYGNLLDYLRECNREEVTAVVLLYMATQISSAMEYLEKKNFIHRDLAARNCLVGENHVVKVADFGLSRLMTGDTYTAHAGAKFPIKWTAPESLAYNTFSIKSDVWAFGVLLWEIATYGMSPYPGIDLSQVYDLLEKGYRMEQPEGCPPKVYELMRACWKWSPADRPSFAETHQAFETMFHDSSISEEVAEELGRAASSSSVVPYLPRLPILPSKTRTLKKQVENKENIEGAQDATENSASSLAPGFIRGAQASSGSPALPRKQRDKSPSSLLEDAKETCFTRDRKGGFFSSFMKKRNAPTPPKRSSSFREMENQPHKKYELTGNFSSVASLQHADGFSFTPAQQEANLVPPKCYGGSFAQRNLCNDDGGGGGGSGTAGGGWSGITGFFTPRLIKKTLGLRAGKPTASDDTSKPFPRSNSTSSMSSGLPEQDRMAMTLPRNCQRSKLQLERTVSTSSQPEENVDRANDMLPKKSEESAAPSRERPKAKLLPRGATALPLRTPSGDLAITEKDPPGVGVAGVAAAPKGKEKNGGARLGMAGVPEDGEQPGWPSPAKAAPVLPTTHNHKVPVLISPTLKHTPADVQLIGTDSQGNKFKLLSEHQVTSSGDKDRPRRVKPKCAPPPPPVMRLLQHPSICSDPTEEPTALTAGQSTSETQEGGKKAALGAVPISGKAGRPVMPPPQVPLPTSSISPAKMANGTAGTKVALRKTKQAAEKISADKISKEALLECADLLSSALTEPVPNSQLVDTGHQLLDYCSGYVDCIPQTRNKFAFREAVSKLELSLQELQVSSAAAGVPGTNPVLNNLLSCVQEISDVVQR
Summary of the method: as §1

STK32B/YANK2 = molecular target: T13, STK32B/YANK2 (Homo sapiens, UniProt Q9NY57)
T13 construct: purchased Reaction Biology Corporation (Kinase HotSpot)
Summary of the method: as §1

CAMK2b = molecular target: T14, CAMK2b (Homo sapiens, UniProt Q13554)
T14 construct: purchased Reaction Biology Corporation (Kinase HotSpot)
Summary of the method: as §1

COT1/MAP3K8 = molecular target: T15, COT1/MAP3K8 (Homo sapiens, UniProt P41279)
T15 construct: purchased Reaction Biology Corporation (Kinase HotSpot)
Summary of the method: as §1

STK39/STLK3 = molecular target: T16, STK39/STLK3 (Homo sapiens, UniProt Q9UEW8)
T16 construct: purchased Reaction Biology Corporation (Kinase HotSpot)
Summary of the method: as §1

Haspin = molecular target: T17, Haspin (Homo sapiens, UniProt Q8TF76)
T17 construct: purchased Reaction Biology Corporation (Kinase HotSpot)
Summary of the method: as §1

CDK2/Cyclin A1 = molecular target: T18, CDK2/Cyclin A1 (Homo sapiens, UniProt P24941)
T18 construct: purchased Reaction Biology Corporation (Kinase HotSpot)
Summary of the method: as §1

MAK = molecular target: T19, MAK (Homo sapiens, UniProt P20794)
T19 construct: purchased Reaction Biology Corporation (Kinase HotSpot)
Summary of the method: as §1

EPHA3 = molecular target: T20, EPHA3 (Homo sapiens, UniProt P29320)
T20 construct: purchased Reaction Biology Corporation (Kinase HotSpot)
Summary of the method: as §1

MARK1 = molecular target: T21, MARK1 (Homo sapiens, UniProt Q9P0L2)
T21 construct: purchased Reaction Biology Corporation (Kinase HotSpot)
Summary of the method: as §1

PIM2 = molecular target: T22, PIM2 (Homo sapiens, UniProt Q9P1W9)
T22 construct: purchased Reaction Biology Corporation (Kinase HotSpot)
Summary of the method: as §1

PDGFRb = molecular target: T23, PDGFRb (Homo sapiens, UniProt P09619)
T23 construct: purchased Reaction Biology Corporation (Kinase HotSpot)
Summary of the method: as §1

EPHB3 = molecular target: T24, EPHB3 (Homo sapiens, UniProt P54753)
T24 construct: purchased Reaction Biology Corporation (Kinase HotSpot)
Summary of the method: as §1

GRK5 = molecular target: T25, GRK5 (Homo sapiens, UniProt P34947)
T25 construct: purchased Reaction Biology Corporation (Kinase HotSpot)
T25 sequence (P34947 whole entry): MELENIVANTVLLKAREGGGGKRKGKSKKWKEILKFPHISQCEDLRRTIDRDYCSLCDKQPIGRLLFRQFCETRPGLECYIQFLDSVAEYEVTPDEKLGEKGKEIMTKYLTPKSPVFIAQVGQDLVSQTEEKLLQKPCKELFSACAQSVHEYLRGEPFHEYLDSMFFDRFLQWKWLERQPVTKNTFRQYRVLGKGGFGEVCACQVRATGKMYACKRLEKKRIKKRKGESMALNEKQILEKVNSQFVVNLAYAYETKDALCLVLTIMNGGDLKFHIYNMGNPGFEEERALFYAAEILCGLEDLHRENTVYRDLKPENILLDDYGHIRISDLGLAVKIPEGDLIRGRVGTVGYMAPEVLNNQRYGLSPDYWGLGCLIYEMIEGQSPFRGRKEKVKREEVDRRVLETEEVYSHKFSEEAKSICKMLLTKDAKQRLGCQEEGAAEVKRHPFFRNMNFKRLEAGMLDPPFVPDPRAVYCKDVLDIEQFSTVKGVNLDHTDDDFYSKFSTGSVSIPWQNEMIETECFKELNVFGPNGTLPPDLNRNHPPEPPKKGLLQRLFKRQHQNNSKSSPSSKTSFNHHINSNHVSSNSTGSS
Summary of the method: as §1

FES/FPS = molecular target: T26, FES/FPS (Homo sapiens, UniProt P07332)
T26 construct: purchased Reaction Biology Corporation (Kinase HotSpot)
Summary of the method: as §1

FYN = molecular target: T27, FYN (Homo sapiens, UniProt P06241)
T27 construct: purchased Reaction Biology Corporation (Kinase HotSpot)
T27 sequence (P06241 whole entry): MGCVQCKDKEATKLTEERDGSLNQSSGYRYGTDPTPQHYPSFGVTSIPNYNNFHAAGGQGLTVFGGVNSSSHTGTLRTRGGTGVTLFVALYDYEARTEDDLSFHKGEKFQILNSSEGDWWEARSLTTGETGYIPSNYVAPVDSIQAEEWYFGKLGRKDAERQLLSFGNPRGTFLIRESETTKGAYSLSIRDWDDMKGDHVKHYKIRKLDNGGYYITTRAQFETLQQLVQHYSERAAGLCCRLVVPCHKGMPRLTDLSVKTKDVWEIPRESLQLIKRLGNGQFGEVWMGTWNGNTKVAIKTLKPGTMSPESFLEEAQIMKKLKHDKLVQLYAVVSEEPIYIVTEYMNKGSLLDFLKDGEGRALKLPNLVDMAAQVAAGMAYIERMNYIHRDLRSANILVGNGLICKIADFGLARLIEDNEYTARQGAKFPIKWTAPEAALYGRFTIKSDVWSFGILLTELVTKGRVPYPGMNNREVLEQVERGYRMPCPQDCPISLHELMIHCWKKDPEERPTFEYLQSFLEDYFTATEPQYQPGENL
Summary of the method: as §1

TESK2 = molecular target: T28, TESK2 (Homo sapiens, UniProt Q96S53)
T28 construct: purchased Reaction Biology Corporation (Kinase HotSpot)
Summary of the method: as §1

IR = molecular target: T29, IR (Homo sapiens, UniProt P06213)
T29 construct: purchased Reaction Biology Corporation (Kinase HotSpot)
Summary of the method: as §1

RIPK2 = molecular target: T30, RIPK2 (Homo sapiens, UniProt O43353)
T30 construct: purchased Reaction Biology Corporation (Kinase HotSpot)
Summary of the method: as §1

Cc1cnc(N[C@H]2CC[C@H](N)CC2)nc1-c1cnc2ccc(-c3ccccc3)cn12 [CDDD11-8]
remaining activity at 1 µM (SIK1): 39.7%
remaining activity at 1 µM (PAK3): 87.5%
remaining activity at 1 µM (TTBK2): 93%
remaining activity at 1 µM (RSK1): 56.9%
remaining activity at 1 µM (PKG1b): 77.5%
remaining activity at 1 µM (CK1a1L): 90%
remaining activity at 1 µM (MARK2/PAR-1Ba): 23.1%
remaining activity at 1 µM (ERN2/IRE2): 45.4%
remaining activity at 1 µM (EPHA6): 88.4%
remaining activity at 1 µM (STK25/YSK1): 97.2%
remaining activity at 1 µM (ROCK1): 76.3%
remaining activity at 1 µM (ABL2/ARG): 67.5%
remaining activity at 1 µM (STK32B/YANK2): 96.7%
remaining activity at 1 µM (CAMK2b): 23.5%
remaining activity at 1 µM (COT1/MAP3K8): 101%
remaining activity at 1 µM (STK39/STLK3): 45.7%
remaining activity at 1 µM (Haspin): 65.1%
remaining activity at 1 µM (CDK2/Cyclin A1): 55.7%
remaining activity at 1 µM (MAK): 67.6%
remaining activity at 1 µM (EPHA3): 94%
remaining activity at 1 µM (MARK1): 46.6%
remaining activity at 1 µM (PIM2): 94.5%
remaining activity at 1 µM (PDGFRb): 40.2%
remaining activity at 1 µM (EPHB3): 92.7%
remaining activity at 1 µM (GRK5): 88.9%
remaining activity at 1 µM (FES/FPS): 86.2%
remaining activity at 1 µM (FYN): 63.2%
remaining activity at 1 µM (TESK2): 100%
remaining activity at 1 µM (IR): 101%
remaining activity at 1 µM (RIPK2): 78.1%

Reference: PMC8909834, “An Orally Bioavailable and Highly Efficacious Inhibitor of CDK9/FLT3 for the Treatment of Acute Myeloid Leukemia” (Cancers, 2022)
